In US8236827B2, “Compounds” (Spear Therapeutics Limited, priority 2009, dated 2012):

What was measured:
wild-type CHO cells = test: Cytotoxicity (MTS) in wild-type CHO cells; type: cell-based, Chinese Hamster; conditions: for IC50: Cricetulus griseus, CHO, 96 h, MTS
Method: CHO cells: Chinese Hamster Ovary (CHO) DUKXB11 cells were grown under standard cell culture conditions in α-MEM supplemented with 10% FCS, 1 unit/ml each of hypoxanthine and thymidine, and penicillin (100 IU/ml) and streptomycin (100 μg/ml) according to literature methods (Ding S, et al., Arch. Biochem. Biophys., 348: 403-410, 1997, the contents of which are incorporated herein by reference). Cells were grown at 37° C. in a humidified atmosphere plus 5% CO2.
(§1) A single cell suspension of CHO, CHO/CYP1A1 or CHO/CYP1B1 in 100 μl of the required cell culture medium was seeded onto 96-well plates at a cell density of 1500 cells per well and placed in an incubator for 24 h at 37° C. The stock solution of test compound in DMSO was then added to give a concentration range of 100, 30, 10, 3, 1, 0.3, 0.1, 0.03, 0.01, 0.003, 0.001, 0 μM. The final concentration of DMSO 0.2% was found not to affect the growth characteristics of the various CHO cell lines. The cells were incubated with the test compound for 96 h after which all the medium was aspirated and replaced with 100 μl of fresh medium to compensate for the loss of medium due to evaporation. The cells were incubated with 20 μl of the MTS assay reagent for 1.5 h and the absorbance per well at 510 nm measured using a plate reader. The mean absorbance and standard deviation for each test compound concentration was calculated versus a series of controls including (a) cells plus medium, (b) cell plus medium containing DMSO 0.2%, (c) medium alone, and (d) medium containing DMSO 0.2% and a range of test compound concentrations from 0 to 100 μM.
(§2) The MTS assay is a homogeneous, colorimetric method for determining the number of viable cells in proliferation, cytotoxicity or chemosensitivity assays (Cali J J, et al., “Luminescence-Based Methods and Probes for Measuring Cytochrome P450 Activity”, pp. 1-29. Promega Corporation, United States, 2004, the contents of which are incorporated herein by reference). The assay is composed of solutions of tetrazolium compound [3-(4,5-dimethylthiazol-2-yl)-5-(3-carboxymethoxyphenyl)-2-(4-sulfophenyl)-2H-tetrazolium, inner salt; MTS] and an electron coupling reagent (phenazine methosulfate) PMS. MTS is bioreduced by cells into a formazan product that is soluble in tissue culture medium. The absorbance of the formazan product at 510 nm can be directly measured from 96-well assay plates. The quantity of formazan product as measured by the amount of absorbance at 490 or 510 nm is directly proportional to the number of living cells in culture.

CYP2D6 = CYP2D6 (Homo sapiens, UniProt P10635); test: CYP phenotyping, metabolic stability; type: in vitro ADME; conditions: CYP2D6 (10 pm/mL); 1 μM; after 60 minutes
Chain of CYP2D6 (P10635 whole entry, species assumed): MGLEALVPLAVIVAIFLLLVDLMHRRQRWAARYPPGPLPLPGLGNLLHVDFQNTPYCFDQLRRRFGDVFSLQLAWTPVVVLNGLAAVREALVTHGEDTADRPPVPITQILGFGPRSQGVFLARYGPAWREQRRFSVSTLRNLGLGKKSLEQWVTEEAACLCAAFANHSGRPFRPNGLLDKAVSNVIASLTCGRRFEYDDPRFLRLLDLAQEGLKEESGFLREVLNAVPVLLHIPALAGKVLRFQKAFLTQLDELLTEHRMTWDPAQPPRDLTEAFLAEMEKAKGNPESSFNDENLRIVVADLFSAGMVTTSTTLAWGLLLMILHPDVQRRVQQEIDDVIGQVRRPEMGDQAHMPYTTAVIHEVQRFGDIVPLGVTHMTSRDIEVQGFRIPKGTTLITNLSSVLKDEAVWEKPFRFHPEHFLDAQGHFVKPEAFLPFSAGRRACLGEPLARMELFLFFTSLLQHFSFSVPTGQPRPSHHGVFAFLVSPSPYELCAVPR
Method: (§3) Compounds V and II were exposed to a panel of six CYPs (see Table 5 below).
(§4) CYP metabolism studies were performed by Cerep Laboratories (Redmond, Wash., USA). Compounds were screened in duplicate at 1 μM in the presence of CYP enzyme, NADP (1.3 mM), D-Glucose-6-phosphate (3.3 mM) and Glucose-6-phosphate dehydrogenase. Following incubation at 0 and 60 minutes, parent compound levels were determined using standard HPLC/MS/MS procedures. The results are expressed as percent parent compound remaining after 60 minutes.

CYP2C19 = CYP2C19 (Homo sapiens, UniProt P33261); test: CYP phenotyping, metabolic stability; type: in vitro ADME; conditions: CYP2C19 (10 pm/mL); 1 μM; after 60 minutes
Method: as §3, §4

CYP2C9 = CYP2C9 (Homo sapiens, UniProt P11712); test: CYP phenotyping, metabolic stability; type: in vitro ADME; conditions: CYP2C9 (10 pm/mL); 1 μM; after 60 minutes
Method: as §3, §4

CYP3A4 = CYP3A4 (Homo sapiens, UniProt P08684); test: CYP phenotyping, metabolic stability; type: in vitro ADME; conditions: CYP3A4 (10 pm/mL); 1 μM; after 60 minutes
Chain of CYP3A4 (P08684 whole entry, species assumed): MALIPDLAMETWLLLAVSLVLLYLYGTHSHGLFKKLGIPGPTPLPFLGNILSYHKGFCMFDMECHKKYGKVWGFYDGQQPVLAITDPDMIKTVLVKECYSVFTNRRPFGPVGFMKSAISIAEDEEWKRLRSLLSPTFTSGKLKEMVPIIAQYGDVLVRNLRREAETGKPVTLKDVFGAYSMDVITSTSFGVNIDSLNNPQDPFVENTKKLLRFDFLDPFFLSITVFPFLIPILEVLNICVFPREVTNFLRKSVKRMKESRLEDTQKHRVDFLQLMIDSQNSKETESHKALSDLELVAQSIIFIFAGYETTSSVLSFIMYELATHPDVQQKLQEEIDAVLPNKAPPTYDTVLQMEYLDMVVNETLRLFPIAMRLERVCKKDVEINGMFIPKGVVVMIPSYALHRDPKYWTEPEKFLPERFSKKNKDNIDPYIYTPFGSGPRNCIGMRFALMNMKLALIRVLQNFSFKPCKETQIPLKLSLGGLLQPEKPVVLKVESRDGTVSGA
Method: as §3, §4

C-Met (HGFR) = C-Met (HGFR) (Homo sapiens, UniProt P08581); test: Cerep kinase screen; type: biochemical; conditions: read-out: % Inhibition of Control
Method: (§5) Kinase screening was performed by Cerep Laboratories (Celle l′Evescault, France). Compounds were screened in duplicate at a single concentration (10 μM). The results, set forth in Table 4 below, are expressed as percent inhibition of control specific activity: {100−[(measured specific activity/control specific activity)×100]} obtained in the presence of Compound XI and Compound V. ATP concentrations correspond to the ATP Km value for each individual kinase (Cerep, private communication). In each experiment, a reference compound was tested concurrently with Compound XI and Compound V in order to assess the assay reliability. IC50 values for the reference compounds were within accepted limits (±0.5 log units) of the historic average.

Lyn = Lyn (Homo sapiens, UniProt P07948); test: Cerep kinase screen; type: biochemical; conditions: read-out: % Inhibition of Control
Method: as §5

FLT-1 = FLT-1 (Homo sapiens, UniProt P17948); test: Cerep kinase screen; type: biochemical; conditions: read-out: % Inhibition of Control
Method: as §5

KDR (VEGFR2) = KDR (VEGFR2) (Homo sapiens, UniProt P35968); test: Cerep kinase screen; type: biochemical; conditions: read-out: % Inhibition of Control
Chain of KDR (VEGFR2) (P35968 20-1356, species assumed): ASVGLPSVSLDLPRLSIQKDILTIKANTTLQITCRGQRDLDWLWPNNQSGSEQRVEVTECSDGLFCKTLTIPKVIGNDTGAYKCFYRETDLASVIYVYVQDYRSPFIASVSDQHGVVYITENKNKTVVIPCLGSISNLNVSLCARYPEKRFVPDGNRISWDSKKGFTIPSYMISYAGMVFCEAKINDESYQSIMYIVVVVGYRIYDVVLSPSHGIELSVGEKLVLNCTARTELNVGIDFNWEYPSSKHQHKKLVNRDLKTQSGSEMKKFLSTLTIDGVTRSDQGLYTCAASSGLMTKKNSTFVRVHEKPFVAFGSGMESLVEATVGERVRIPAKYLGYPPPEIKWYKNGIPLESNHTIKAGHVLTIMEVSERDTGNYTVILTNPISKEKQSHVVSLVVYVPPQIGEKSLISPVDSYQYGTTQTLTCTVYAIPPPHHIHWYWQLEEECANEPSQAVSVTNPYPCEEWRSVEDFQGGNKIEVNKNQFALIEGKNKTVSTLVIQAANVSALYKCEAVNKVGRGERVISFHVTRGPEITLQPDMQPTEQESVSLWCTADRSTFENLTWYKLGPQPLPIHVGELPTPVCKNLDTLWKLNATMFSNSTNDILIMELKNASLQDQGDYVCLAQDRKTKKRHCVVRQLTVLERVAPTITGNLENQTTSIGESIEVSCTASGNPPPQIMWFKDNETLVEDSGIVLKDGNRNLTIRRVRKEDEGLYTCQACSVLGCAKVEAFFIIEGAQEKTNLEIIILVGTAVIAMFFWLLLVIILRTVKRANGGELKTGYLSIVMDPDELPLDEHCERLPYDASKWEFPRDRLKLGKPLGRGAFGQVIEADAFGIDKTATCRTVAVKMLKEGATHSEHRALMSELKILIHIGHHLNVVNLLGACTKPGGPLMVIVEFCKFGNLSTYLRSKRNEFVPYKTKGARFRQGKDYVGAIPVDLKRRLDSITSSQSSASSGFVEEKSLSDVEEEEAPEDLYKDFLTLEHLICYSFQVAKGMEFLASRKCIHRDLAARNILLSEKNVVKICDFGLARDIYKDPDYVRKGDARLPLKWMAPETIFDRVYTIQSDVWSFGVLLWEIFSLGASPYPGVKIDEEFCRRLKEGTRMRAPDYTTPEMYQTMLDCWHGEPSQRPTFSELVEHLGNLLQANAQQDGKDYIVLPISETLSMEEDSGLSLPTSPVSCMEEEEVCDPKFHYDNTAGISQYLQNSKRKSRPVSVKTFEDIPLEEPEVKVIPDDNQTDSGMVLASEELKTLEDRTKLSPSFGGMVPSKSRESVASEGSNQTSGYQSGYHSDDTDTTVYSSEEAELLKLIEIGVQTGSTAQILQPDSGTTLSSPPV
Method: as §5

FGFR2 = FGFR2 (Homo sapiens, UniProt P21802); test: Cerep kinase screen; type: biochemical; conditions: read-out: % Inhibition of Control
Chain of FGFR2 (P21802 22-821, species assumed): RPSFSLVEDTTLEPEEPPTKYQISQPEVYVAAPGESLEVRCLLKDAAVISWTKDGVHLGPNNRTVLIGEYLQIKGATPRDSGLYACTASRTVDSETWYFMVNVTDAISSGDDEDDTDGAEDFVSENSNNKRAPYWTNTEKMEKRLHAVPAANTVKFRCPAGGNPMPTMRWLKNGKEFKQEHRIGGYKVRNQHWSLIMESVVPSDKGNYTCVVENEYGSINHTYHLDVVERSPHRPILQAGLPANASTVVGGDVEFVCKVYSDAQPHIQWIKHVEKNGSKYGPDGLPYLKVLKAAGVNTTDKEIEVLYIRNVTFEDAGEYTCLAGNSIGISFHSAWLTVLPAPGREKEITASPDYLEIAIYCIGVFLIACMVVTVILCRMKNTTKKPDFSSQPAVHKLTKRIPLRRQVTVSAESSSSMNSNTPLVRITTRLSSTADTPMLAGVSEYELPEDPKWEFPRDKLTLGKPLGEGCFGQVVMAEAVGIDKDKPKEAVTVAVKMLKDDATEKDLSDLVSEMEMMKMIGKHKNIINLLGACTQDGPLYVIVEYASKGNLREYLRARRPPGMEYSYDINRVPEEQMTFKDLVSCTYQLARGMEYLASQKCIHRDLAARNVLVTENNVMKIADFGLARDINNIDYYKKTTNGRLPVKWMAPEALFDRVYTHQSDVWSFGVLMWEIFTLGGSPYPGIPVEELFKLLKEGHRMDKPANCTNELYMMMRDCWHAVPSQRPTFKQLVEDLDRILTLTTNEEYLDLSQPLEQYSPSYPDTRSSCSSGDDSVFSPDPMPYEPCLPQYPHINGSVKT
Method: as §5

FGFR4 = FGFR4 (Homo sapiens, UniProt P22455); test: Cerep kinase screen; type: biochemical; conditions: read-out: % Inhibition of Control
Method: as §5

Fyn = Fyn (Homo sapiens, UniProt P06241); test: Cerep kinase screen; type: biochemical; conditions: read-out: % Inhibition of Control
Method: as §5

CSK = CSK (Homo sapiens, UniProt P41240); test: Cerep kinase screen; type: biochemical; conditions: read-out: % Inhibition of Control
Method: as §5

FLT-3 = FLT-3 (Homo sapiens, UniProt P36888); test: Cerep kinase screen; type: biochemical; conditions: read-out: % Inhibition of Control
Method: as §5

PDGFRβ = PDGFRβ (Homo sapiens, UniProt P09619); test: Cerep kinase screen; type: biochemical; conditions: read-out: % Inhibition of Control
Chain of PDGFRβ (P09619 33-1106, species assumed): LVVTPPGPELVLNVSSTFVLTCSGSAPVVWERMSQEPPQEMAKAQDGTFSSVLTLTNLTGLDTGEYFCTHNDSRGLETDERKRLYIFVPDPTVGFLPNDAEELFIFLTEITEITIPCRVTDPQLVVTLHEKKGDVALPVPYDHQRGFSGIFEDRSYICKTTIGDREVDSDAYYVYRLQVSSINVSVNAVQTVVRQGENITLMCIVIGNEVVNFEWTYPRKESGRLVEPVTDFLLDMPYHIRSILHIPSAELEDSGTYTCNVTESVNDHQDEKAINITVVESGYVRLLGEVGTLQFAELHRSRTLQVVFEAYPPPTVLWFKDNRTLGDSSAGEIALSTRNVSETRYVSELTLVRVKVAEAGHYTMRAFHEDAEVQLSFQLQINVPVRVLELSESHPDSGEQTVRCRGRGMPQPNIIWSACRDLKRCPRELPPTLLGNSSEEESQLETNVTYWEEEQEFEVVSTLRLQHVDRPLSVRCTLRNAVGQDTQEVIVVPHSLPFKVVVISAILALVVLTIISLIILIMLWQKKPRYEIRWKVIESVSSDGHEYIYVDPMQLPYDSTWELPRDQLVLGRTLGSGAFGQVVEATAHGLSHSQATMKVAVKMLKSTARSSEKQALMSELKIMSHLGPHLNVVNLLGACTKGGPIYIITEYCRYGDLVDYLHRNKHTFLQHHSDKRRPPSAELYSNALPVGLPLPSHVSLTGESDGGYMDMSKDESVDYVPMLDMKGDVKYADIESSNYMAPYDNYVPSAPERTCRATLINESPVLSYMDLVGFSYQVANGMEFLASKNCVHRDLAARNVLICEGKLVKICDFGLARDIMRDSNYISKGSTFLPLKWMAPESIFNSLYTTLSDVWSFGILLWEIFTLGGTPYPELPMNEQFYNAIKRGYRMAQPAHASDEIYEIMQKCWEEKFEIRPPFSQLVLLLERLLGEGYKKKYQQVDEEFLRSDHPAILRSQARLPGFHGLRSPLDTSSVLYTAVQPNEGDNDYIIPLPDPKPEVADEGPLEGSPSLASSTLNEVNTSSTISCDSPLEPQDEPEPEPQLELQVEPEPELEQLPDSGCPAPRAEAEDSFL
Method: as §5

[1] = Cytotoxicity (MTS) in CHO/CYP1B1 cells; type: cell-based, Chinese Hamster; conditions: Chinese hamster; text of b216; read-out: IC50, proliferation of CHO/CYP1B1 cells
Method: (§6) CHO/CYP1A1 and CHO/CYP1B1 cells: CHO cells containing recombinant CYP1A1 and recombinant CYP1B1 co-expressing P450 reductase, namely (CHO/CYP1A1) and (CHO/CYP1B1) respectively, were cultured using the standard culture medium for CHO cells supplemented with 0.4 mg/ml G418 disulfate salt and 0.3 μM methotrexate (Sigma/Aldrich Co., Gillingham, Dorset, UK) according to methods described in the literature (ibid.) Cells were grown at 37° C. in a humidified atmosphere plus 5% CO2.
as §1, §2

CHO/CYP1B1 cells = test: Cytotoxicity (MTS) in CHO/CYP1B1 cells; type: cell-based, Chinese Hamster
Method: as §6, §1, §2

CYP3A5 = CYP3A5 (Homo sapiens, UniProt P20815); test: CYP phenotyping, metabolic stability; type: in vitro ADME; conditions: CYP3A5 (10 pm/mL)
Chain of CYP3A5 (P20815 whole entry, species assumed): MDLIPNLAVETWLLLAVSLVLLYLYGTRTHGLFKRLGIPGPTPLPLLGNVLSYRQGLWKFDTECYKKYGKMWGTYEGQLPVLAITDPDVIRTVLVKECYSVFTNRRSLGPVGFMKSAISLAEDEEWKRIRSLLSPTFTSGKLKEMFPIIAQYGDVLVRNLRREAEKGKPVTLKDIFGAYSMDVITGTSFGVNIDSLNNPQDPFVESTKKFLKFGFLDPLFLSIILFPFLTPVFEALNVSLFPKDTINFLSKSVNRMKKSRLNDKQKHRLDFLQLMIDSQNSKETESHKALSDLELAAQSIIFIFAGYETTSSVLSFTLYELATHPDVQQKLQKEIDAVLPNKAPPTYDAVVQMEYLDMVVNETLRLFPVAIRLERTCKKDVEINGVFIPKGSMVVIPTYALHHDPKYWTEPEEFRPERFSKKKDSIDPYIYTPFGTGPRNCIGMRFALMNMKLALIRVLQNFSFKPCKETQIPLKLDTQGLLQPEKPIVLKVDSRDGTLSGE
Method: (§7) As mentioned above, a feature of the compounds of the invention is their metabolism by CYP1B1 which is expressed at high frequency in a wide range of human cancers of different histogenetic types, but not in normal tissues. […] Compounds V and II were exposed to a panel of six CYPs (see Table 5 below).
as §4

CYP1A2 = target: T1, CYP1A2 (Homo sapiens, UniProt P05177); test: CYP phenotyping, metabolic stability; type: in vitro ADME; conditions: CYP1A2 (40 pm/mL); 1 μM; after 60 minutes
T1 sequence (P05177 1-516): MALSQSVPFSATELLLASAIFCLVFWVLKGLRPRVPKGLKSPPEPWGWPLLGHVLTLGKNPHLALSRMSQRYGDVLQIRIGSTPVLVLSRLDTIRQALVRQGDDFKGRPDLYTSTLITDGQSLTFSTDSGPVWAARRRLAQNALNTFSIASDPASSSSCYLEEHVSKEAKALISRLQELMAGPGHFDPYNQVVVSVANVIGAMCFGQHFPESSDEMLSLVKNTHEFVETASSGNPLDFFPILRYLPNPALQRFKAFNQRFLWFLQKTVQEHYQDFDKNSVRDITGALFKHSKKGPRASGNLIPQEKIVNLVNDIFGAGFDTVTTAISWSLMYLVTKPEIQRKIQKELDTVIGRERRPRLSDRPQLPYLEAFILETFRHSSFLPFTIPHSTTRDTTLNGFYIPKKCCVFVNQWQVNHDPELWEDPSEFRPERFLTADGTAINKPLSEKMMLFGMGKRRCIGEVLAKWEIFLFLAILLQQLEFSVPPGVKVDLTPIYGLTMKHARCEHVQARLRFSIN
Method: as §7, §4

CHO/CYP1A1 cells = test: Cytotoxicity (MTS) in CHO/CYP1A1 cells; type: cell-based, Chinese Hamster
Method: as §6, §1, §2

[2] = Cytotoxicity (MTS) in CHO/CYP1A1 cells; type: cell-based, Chinese Hamster; conditions: Chinese hamster; 96 h, MTS
Method: as §6, §1, §2

SMILES: COc1ccc(-c2cc(-c3ccc4c(c3)OCO4)cc(=O)[nH]2)cc1OC [Compound V]
- toxicity to wild-type CHO cells (in words) (wild-type CHO cells): non toxic
- IC50 (wild-type CHO cells): > 100 µM
- Mean Parent Remaining (%) (CYP2D6): 100%
- Mean Parent Remaining (%) (CYP2C19): 111%
- Mean Parent Remaining (%) (CYP2C9): 109%
- Mean Parent Remaining (%) (CYP3A4): 93%
- inhibition at 10 µM (C-Met (HGFR)): -5%
- inhibition at 10 µM (Lyn): -1%
- inhibition at 10 µM (FLT-1): 11%
- inhibition at 10 µM (KDR (VEGFR2)): 19%
- inhibition at 10 µM (FGFR2): 13%
- inhibition at 10 µM (FGFR4): -3%
- inhibition at 10 µM (Fyn): 25%
- inhibition at 10 µM (CSK): 4%
- inhibition at 10 µM (FLT-3): 21%
- inhibition at 10 µM (PDGFRβ): 7%
- IC50 at 96 h [1]: 80 nM
- activity against CHO/CYP1B1 cells (in words) (CHO/CYP1B1 cells): strongly inhibit proliferation
- Mean Parent Remaining (%) (CYP3A5; 1 μM, after 60 minutes): 87%
- Mean Parent Remaining (%) (CYP1A2): 71%
- toxicity / activity in CYP1A1 expressing CHO cells (in words) (CHO/CYP1A1 cells): non toxic
- IC50 at 96 h [2]: > 100 µM

SMILES: COc1ccc(-c2cc(-c3ccc4c(c3)OCO4)cc(=O)[nH]2)cc1 [Compound VI]
- toxicity to wild-type CHO cells (in words) (wild-type CHO cells): non toxic
- IC50 (wild-type CHO cells): > 100 µM
- IC50 at 96 h [1]: 500 nM
- activity against CHO/CYP1B1 cells (in words) (CHO/CYP1B1 cells): strongly inhibit proliferation
- toxicity / activity in CYP1A1 expressing CHO cells (in words) (CHO/CYP1A1 cells): non toxic
- IC50 at 96 h [2]: > 100 µM

SMILES: Cc1ncc2n1-c1ccc(Cl)cc1C(c1ccccc1F)=NC2 [Midazolam, reference compound]
- % Reference Compound Remaining (CYP3A5; reference compound): 1%
